Test system: human nose
Test: Odor intensity evaluation by panelists and Human Recognition Slope Factor (HRSF) calculation in DPG
Conditions: for HRSF (Human Recognition Slope Factor = Ii/xi) / Ii (maximum intensity in a given media) / xi (lowest concentration to reach maximum intensity): low hydrophobic media (DPG); for Odor Intensity (I): average of 25 panelists, in DPG
Description: The Human Recognition Slope Factor (HRSF) is a tool in choosing the most efficient high odor value materials to create perfume booster accords. […] The higher the number, the more efficient the material will be.
The HRSF identifies the behavior of perfume materials through the relevant range of concentrations in a given product. The calculation process of the HRSF also defines the concentration where the high odor value material reaches its maximum intensity in a given media.
The HRSF is determined by the following calculations: HRSF=Ii/xi wherein: HRSF=Human Recognition Slope Factor; Ii is the maximum intensity that a high odor value material delivers in a given media; and xi is the lowest concentration of the high odor value material to reach maximum intensity.
The value of Ii and xi are calculated using the following two equations. The first equation (I) describes the intensity of a high odor value material across a broad range of concentrations. The second equation (VI) allows one to find the maximum concentration when both mathematical equations reach the same intensity value. I=a/(1+(x/c)ˆb) (I) wherein: I is the Intensity of the high odor value material; x is the concentration of the material; and a, b, and c are experimental constants for each high odor value material.
The experimental constants of “a, b, and c” are generated by performing a non linear regression analysis using commercially available software. One software package useful in performing the non linear regression analysis is GraphPad Prism 4 for Windows, available from GraphPad Software, Inc., San Diego Calif.
Odor evaluations of each raw material are conducted among at least 25 people. Each material is diluted to a given concentration, and panelists are requested to grade the smell using a numeric scale (Low: 0-15, Slight: 16-30, Moderate: 31-50, Strong: 51-70, Very Strong: 71-up). Internal controls containing Benzyl salicylate, Citronellol and Ethyl 2 Methyl Butyrate are used to define the standard intensity for each range.
An illustration of how the non linear regression analysis works is described below. In the following example, the material Alpha Damascone was used for illustrative purposes. The experimental data from 25 panelists indicate that the average value for each observation of Alpha Damascone in DPG is as follows:
The goal of the software package is to minimize the sum of the squares of the vertical distances of the points from the curve. The software prompts the user to perform the following steps to run an iterative process that allows one to find the values of a, b, and c. The R^2 factor (shown below) will indicate if the objective of minimizing the sum of the squares of the vertical distances of the points from the curve was achieved. The closer the R^2 factor is to 1.0, the better the “best-fit values” will be.
The software generates the curve defined by the initial values, calculates the sum-of-squares (the sum of the squares of the vertical distances of the points from the curve), adjusts the variables to make the curve come closer to the data points, adjusts the variables again so that the curve comes even closer to the points, keeps adjusting the variables until the adjustments make virtually no difference in the sum-of-squares and reports the best-fit results.
The “best fit values” are the “a, b, and c” values used in all the equations described herein. Once the “a, b, and c” values are determined, proceed with the following equations.
By definition, the curve that describes that Intensity and its differential curve will meet at the point where a given material delivers the maximum intensity with the minimum mass. Therefore, the next step is to calculate the intersection point by solving the following equation: (ab(xi/c)ˆb)/(x((x/c)ˆb+1)ˆ2=a/(1+(x/c)ˆb) (V)
Therefore, (ab(xi/c)ˆb)/(xi((xi/c)ˆb+1)ˆ2−a/(1+(xi/c)ˆb)=0 (VI) […]

CC(=O)OC(C)c1ccccc1 (stereo not shown) [Methyl Phenyl Carbinyl Acetate]
HRSF (Human Recognition Slope Factor = Ii/xi): 756 | Ii (maximum intensity in a given media): 50.63 | xi (lowest concentration to reach maximum intensity): 0.067

CC(=O)C(C)=CC1C(C)=CCCC1(C)C (stereo not shown) [3-buten-2-one, 3-methyl-4-(2,6,6-trimethyl-2-cyclohexen-1-yl)]
HRSF (Human Recognition Slope Factor = Ii/xi): 1,204 | Ii (maximum intensity in a given media): 85.50 | xi (lowest concentration to reach maximum intensity): 0.071

Cc1ccc2c(c1)OCC(=O)CO2 [Calone 1951, Methyl-3,4-dioxy(cylcoacetonyl) benzene]
HRSF (Human Recognition Slope Factor = Ii/xi): 1,030 | Ii (maximum intensity in a given media): 71.88 | xi (lowest concentration to reach maximum intensity): 0.0698

CC(=O)C=CC1=C(C)CCCC1(C)C [Ionone Beta, 4-(2,6,6-Trimethyl-1-cyclohexenyl)-3-butenone-2]
HRSF (Human Recognition Slope Factor = Ii/xi): 15,451 | Ii (maximum intensity in a given media): 47.90 | xi (lowest concentration to reach maximum intensity): 0.0031

CCC(C)(O)CCCC(C)C (stereo not shown) [Tetra Hydro linalool, Tetra Hydro 3,7-Dimethyl-1,6-octadien-3-ol]
HRSF (Human Recognition Slope Factor = Ii/xi): 838 | Ii (maximum intensity in a given media): 53.69 | xi (lowest concentration to reach maximum intensity): 0.0641

CC(=O)OC1CCCCC1C(C)(C)C (stereo not shown) [Verdox, ortho tertiary butyl cyclohexanyl acetate]
HRSF (Human Recognition Slope Factor = Ii/xi): 998 | Ii (maximum intensity in a given media): 51.91 | xi (lowest concentration to reach maximum intensity): 0.052

Hexahydro-4,7methano-1H-inden-5(or 6)-yl propionate [Frutene]
HRSF (Human Recognition Slope Factor = Ii/xi): 738 | Ii (maximum intensity in a given media): 80.35 | xi (lowest concentration to reach maximum intensity): 0.1089

CC(=O)OC1CC2CC1C1CC=CC21 (stereo not shown) [Tricyclo decenyl acetate]
HRSF (Human Recognition Slope Factor = Ii/xi): 1,379 | Ii (maximum intensity in a given media): 46.74 | xi (lowest concentration to reach maximum intensity): 0.0339

Methyl Cedrylone
HRSF (Human Recognition Slope Factor = Ii/xi): 811 | Ii (maximum intensity in a given media): 84.44 | xi (lowest concentration to reach maximum intensity): 0.1041

CCOC(=O)CC1(C)OCCO1 [Fructone, ethyl methyl dioxolane acetate]
HRSF (Human Recognition Slope Factor = Ii/xi): 2,243 | Ii (maximum intensity in a given media): 62.36 | xi (lowest concentration to reach maximum intensity): 0.0278

CC1(C)CCC[C@]2(C)[C@H]3CCO[C@]3(C)CC[C@@H]12 [Ambroxan, (3aR-(3aalpha,5abeta,9aalpha,9bbeta))-dodecahydro-3a,6,6,9a-tetramethyl naphtha(2,1-b)furan]
HRSF (Human Recognition Slope Factor = Ii/xi): 7,675 | Ii (maximum intensity in a given media): 68.31 | xi (lowest concentration to reach maximum intensity): 0.0089

CCCCCCCCCCCC=O [Lauric Ald]
HRSF (Human Recognition Slope Factor = Ii/xi): 1,409 | Ii (maximum intensity in a given media): 67.33 | xi (lowest concentration to reach maximum intensity): 0.0478

C/C=C\C(=O)C1C(C)=CCCC1(C)C (stereo not drawn) [Alpha Damascone]
Odor Intensity (I) (Concentration (X) 0.0004): 5 | Odor Intensity (I) (Concentration (X) 0.0022): 15 | Odor Intensity (I) (Concentration (X) 0.0032): 25 | Odor Intensity (I) (Concentration (X) 0.0044): 35 | Odor Intensity (I) (Concentration (X) 0.0072): 50 | Odor Intensity (I) (Concentration (X) 0.0092): 55 | Odor Intensity (I) (Concentration (X) 0.0170): 60 | HRSF (Human Recognition Slope Factor = Ii/xi): 2,034 | Ii (maximum intensity in a given media): 62.86 | xi (lowest concentration to reach maximum intensity): 0.0309

CC1=CCC(C=CC(C)(C)C(C)O)C1(C)C (stereo not shown) [Polysantol, 3,3-Dimethyl-5-(2,2,3-trimethyl-3-cycloenten-1-yl)-4-penten-2-ol]
HRSF (Human Recognition Slope Factor = Ii/xi): 690 | Ii (maximum intensity in a given media): 73.16 | xi (lowest concentration to reach maximum intensity): 0.106

CCCCCCCCCC=O [Decyl Aldehyde]
HRSF (Human Recognition Slope Factor = Ii/xi): 1,098 | Ii (maximum intensity in a given media): 54.35 | xi (lowest concentration to reach maximum intensity): 0.0495

CC(=O)/C=C/C1C(C)=CCCC1(C)C (stereo not shown) [Ionone Apha, 3-buten-2-one, 4-(2,6,6-trimethyl-2-cyclohexen-1-yl), (E)]
HRSF (Human Recognition Slope Factor = Ii/xi): 1,157 | Ii (maximum intensity in a given media): 91.99 | xi (lowest concentration to reach maximum intensity): 0.0795

— patent US20070071780A1, “Personal care composition comprising a perfume booster accord” (priority 2005, published 2007)
